Reference: patent publication US20230365639A1, “DEFENSIN FRAGMENT DERIVED LIPOPEPTIDES FOR TREATMENT OF DRUG-RESISTANT MICROORGANISMS” (priority 2020, published 2023)

Columns and labels:
[1] = tested on: several pathogenic bacteria; assay: Radial diffusion assay and MIC screening for antimicrobial activity; assay type: cell-based; conditions: radial diffusion assay and MIC determinations
Method: Methods: Log-phase bacteria were cultivated for up to 18 hours in TSB (TSB, Becton Dickinson, USA), washed and diluted to 4×10^6 CFU in 10 ml agar. Bacteria were incubated in 10 ml of 10 mM sodium phosphate, pH 7.4, containing 0.3 mg/ml of TSB powder and 1% (w/v) low EEO-agarose (AppliChem). Lipopeptides were pipetted into punched wells and diffused into the gel for 3 hours at 37° C. After that, a nutrient-rich gel with 6% TSB (w/v) and 1% agarose in 10 mM sodium phosphate buffer was poured on top of the first gel and incubated for up to 24 hours at 37° C. Then the diameter of inhibition zones was measured.
Clinical isolates of A. baumannii DSM30007, E. faecium DSM2918, K. pneumoniae DSM30104 and P. aeruginosa DSM1117 were provided by the Department for Laboratory Medicine at Robert-Bosch-Hospital Stuttgart, Germany. C. rodentium DSM16636 and E. coli DSM8695 were obtained from the Deutsche Sammlung von Mikroorganismen and Zellkultur GmbH Braunschweig, Germany. […]

C. albicans = assay: Broth microdilution assay, antifungal activity; assay type: cell-based
Method: (§1) Methods: Broth microdilution assay. Candida was cultured in TSB over night at 37° C., centrifuged (1500 rpm, 10 min, RT) and washed twice with 10 mM sodium phosphate buffer containing 1% (w/v) TSB. Candida cells were counted and approximately 5×10^5 CFU/ml fungi were incubated with serial peptide concentrations (1.17-150 μM) in a final volume of 100 μl in 10 mM sodium phosphate buffer containing 1% (w/v) TSB for 2 hours at 37° C. After incubation, 100 μl of 6% TSB (w/v) was added and absorbance was measured at 600 nm (Tecan, Switzerland) and monitored for 18 hours. Afterwards, 100 μl per well was plated on YPD agar to determine the number of viable bacteria microbiologically.

C. tropicalis = assay: Broth microdilution assay, antifungal activity; assay type: cell-based
Method: as §1

[2] = Cellular toxicity, lactate dehydrogenase (LDH) assay; assay type: cell-based
Method: (§2) Methods: Cellular toxicity was determined by Lactate dehydrogenase concentration and WST-1 cell proliferation assay as well as hemolysis assay.

[3] = Cellular toxicity, WST-1 cell proliferation assay; assay type: cell-based
Method: as §2

red blood cell = assay: Hemolysis assay; assay type: cell-based
Method: as §2

[4] = Acute tolerability after oral administration; assay type: in vivo, C57BL/6N mice
Source text: Methods: C57BL/6N mice were generated and maintained (including breeding and housing) at the animal facilities of the Helmholtz Centre for Infection Research (HZI) under enhanced specific pathogen-free (SPF) conditions (Stehr et al., 2009). Animals used in the experiments were gender and age matched. Female and male mice with an age of 8-12 weeks were used. Sterilized food and water ad libitum were provided. Mice were kept under a strict 12-hour light cycle (lights on at 7:00 am and off at […]) and housed in groups of two to six mice per cage. All mice were euthanized by asphyxiation with CO2 and cervical dislocation. All animal experiments were performed in agreement with the local government of Lower Saxony, Germany (approved permission No. 33.19-42502-04-18/2499).
Age- and gender-matched mice received two doses of peptides (0, 125 μg or 250 μg) solved in 100 μl PBS orally per day. Bodyweight and appearance were recorded. The following day, mice were sacrificed and stomach, kidney, spleen, liver, small intestine, cecum and colon were removed for histological scoring. Around 1 ml of blood was taken from the heart to measure inflammatory markers including creatinine in the kidney and the enzyme levels of glutamate-oxalacetate-transaminase (GOT) in the liver.

[5] = tested on: C. rodentium strain ICC180; assay: Established gastrointestinal infection caused by C. rodentium; assay type: in vivo, mice; conditions: two doses of 250 μg orally 5 days post infection; content or tissue not specified
Method: All mice were euthanized by asphyxiation with CO2 at indicated time points. Intestinal tissues (small intestine, cecum, colon) were removed aseptically. To collect intestinal content, organs were flushed with PBS. Organs were opened longitudinally, cleaned thoroughly with PBS and weighted. Organs and content were homogenized in PBS using a Polytron homogenizer (Kinemtatica). Dilutions of homogenized samples were plated on LB plates containing 50 μg/ml kanamycin to determine CFUs.
Methods: Citrobacter rodentium infection. Bioluminescence expressing C. rodentium strain ICC180 was used for all infection experiments (Wiles et al., 2004). C. rodentium inoculae were prepared by culturing bacteria overnight at 37° C. in LB broth with 50 μg/mI kanamycin. Subsequently, the culture was diluted 1:100 in fresh medium, and sub-cultured for 4 hours at 37° C. in LB broth (Thiemann et al., 2017). Bacteria were washed twice in phosphate-buffered saline (PBS). Mice were orally inoculated with 10^8 CFU of C. rodentium diluted in 200 μl PBS. Weight of the mice was monitored and feces was collected for measurements of the pathogen burden. 5 days post infection mice received twice 250 μg peptide solved in 100 μl PBS or only PBS orally. The following day, mice were sacrificed to assess bacterial burden in the lumen and tissues of the cecum and the colon. […]

Pam2-Glc-Suc-RGKAKCCK [Pam-1]
antimicrobial activity, inhibition of bacterial growth of the tested strains [1]: generally inactive | antifungal activity against C. albicans (C. albicans): no antifungal activity | antifungal activity against C. tropicalis (C. tropicalis): no antifungal activity | LDH activity (cytotoxicity) [2]: no LDH activity | metabolic activity (WST-1 assay) [3]: normal metabolic activity | red blood cell disruption (hemolysis) (red blood cell): minimal red blood cell disruption | histological examination of gastrointestinal, liver and kidney tissues ([4]; mouse, in vivo, po): no alterations | serum level of creatinine ([4]; mouse, in vivo, po): no significant differences between the groups | serum level of glutamic oxaloacetic transaminase (GOT) ([4]; mouse, in vivo, po): no significant differences between the groups | acute toxicity (histological analysis and serum markers) ([4]; oral, mice, 24 hours after application, 125 or 250 μg doses): did not reveal any acute toxicity | CFU's of C. rodentium in cecum [5]: did not reduce | CFU's of C. rodentium in colon [5]: did not reduce
